# Measured values published in patent US5393785A, “Therapeutic antiestrogens” (Endorecherche, Inc., priority 1992, dated 1995).
# Key:
# [1] = system: rat uterine cytosol estrogen receptor; assay: competition binding on rat uterine cytosol estrogen receptor with [3H]estradiol; conditions: incubation at 25° C. for 3 hours; [3H]estradiol competition
# Description: FIG. 1 illustrates a competition binding assay of the affinity of estradiol, diethylstilbestrol, ICI 164384 (Wakeling A. E. and Bowler J., 1987; J. Endocr. 112, R7-R10) and EM-142 (an antiestrogen in accordance with the invention synthesized in example 1, herein) for the rat uterine cytosol receptor (Asselin et al., 1978; J. Steroid Biochem. 9:1079-1082).
# EM-142 from example 1 was tested by competition binding on the rat uterine cytosol estrogen receptor with [^3 H]estradiol according to Asselin et al. (1976) procedure. […] (Incubation was performed at 25° C. for 3 hours).
# [2] = system: estradiol-induced stimulation of uterine weight; assay: inhibition of estradiol-induced stimulation of uterine weight in ovariectomized mice; assay type: in vivo, Balb/c mice
# Description: FIG. 2 illustrates the effect of the indicated doses of EM-142 injected twice daily (b.i.d.) on uterine weight (mg) in adult female ovariectomized Balb/C mice treated for 4.5 days in the presence or absence of simultaneous treatment with 17β-estradiot (0.01 μg, b.i.d.). […] EM-142, and/or estradiol contained in ethanol were injected subcutaneously in the appropriate groups in a solution of 0.9% (w/v) sodium chloride and 1% (w/v) gelatin at different concentrations in 0.2 ml for EM-142, twice daily, starting on the day of ovariectomy for a total of 9 injections. Estradiol was injected at the dose of 0.01 μg in 0.2 ml, twice daily, starting on the morning after ovariectomy for a total of 8 injections. After sacrifice, the uteri were rapidly removed, freed from fat and connective tissue and weighted. Results shown in FIG. 2 are the means ± SEM of groups of 9-10 mice.
# [3] = system: advanced breast cancer; conditions: cited from earlier work
binding potency relative to 17β-estradiol (times less potent) [1] [times],Compound,binding potency compared with ICI 164384 [1],"effect on E2-induced uterine growth at 0.3 μg ([2]; 0.3 μg s.c. twice daily, 9 injections, estradiol 0.01 μg b.i.d.)","effect on estrogenic action at 20 μg ([2]; 20 μg s.c. twice daily, 9 injections, estradiol 0.01 μg b.i.d.)","estrogenic (agonistic) effect on uterine weight ([2]; EM-142 in absence of estradiol, s.c. twice daily)","dose giving half-maximal inhibitory effect on E2-induced uterine growth ([2]; s.c. twice daily, 9 injections, estradiol 0.01 μg b.i.d.)",women patients treated with remission of advanced breast cancer [3]
3,"CCCCN(C)C(=O)CCCCCCCCCCC(=C(CC)c1ccc(O)cc1)c1ccc(O)cc1 [EM-142, N-butyl,N-methyl-12,13-Bis (4-hydroxyphenyl)-12-pentadecenoic amide]",more potent than the antiestrogen ICI 164384,significant inhibitory effect,complete reversal of estrogenic action,no estrogenic effect on uterine weight,approximately 3 μg,–
–,CC/C(=C(\c1ccccc1)c1ccc(OCCN(C)C)cc1)c1ccccc1 [Tamoxifen],–,–,–,–,–,about 30%
